Results taken from PMC3981819, “Signaling Properties and Pharmacological Analysis of Two Sulfakinin Receptors from the Red Flour Beetle, Tribolium castaneum” (PLoS ONE, 2014).

Columns and labels:
Trica-SKR1 [1] = experiment: Aequorin-luminescence assay, CHO-WTA11 cells (Gα16) transfected with Trica-SKR1; format: cell-based, Tribolium castaneum; settings: aequorin bioluminescence
Method: (§1) General pharmacological studies were performed in Chinese Hamster Ovary (CHO) WTA11 cells, stably coexpressing apoaequorin, a zeocin resistance gene and the promiscuous Gα16, which couples most agonist-induced GPCRs to the phospholipase C and Ca^2+ pathway irrespective of their natural signaling cascade. CHO-PAM28 cells stably expressing apoaequorin and a puromycin resistance gene but not Gα16 and HEK293T cells (Invitrogen) were used to determine possible effects on Ca^2+ and/or cAMP second messenger systems, respectively. All cell lines were cultured in Dulbecco’s Modified Eagles Medium nutrient mixture F12-Ham (DMEM/F12; Invitrogen) supplemented with 1% penicillin/streptomycin (10000 units/ml penicillin and 10 mg/ml streptomycin in 0.9% NaCl; Invitrogen) to prevent bacterial contamination of gram-positive and gram-negative bacteria. In CHO-WTA11 culture medium 250 μg/ml zeocin (Invitrogen) was added as a selection marker, while CHO-PAM28 culture medium was supplemented with 5 μg/ml puromycin to select cells stably expressing apoaequorin. All cell culture media were supplemented with 10% fetal bovine serum (inactivated at […]; Sigma-Aldrich).
(§2) Cells were cultured in vitro as a monolayer at 37°C with a constant supply of 5% CO2 and were subcultivated twice a week. Transfections of cells were performed in T75 flasks at 60–80% confluency. Transfection reagent for CHO cells was prepared by combining 3.75 ml Opti-MEM I (Invitrogen), 7.5 μg plasmid DNA and 18.75 μl of Plus Reagent (Invitrogen). After gently mixing and 5 min incubation at room temperature 45 μl of Lipofectamine LTX was added to the mixture. This transfection medium was incubated for 30 min at room temperature and added dropwise to the cells, supplemented with 3 ml of fresh culture medium. HEK 293T cells were cotransfected with a receptor construct (6 μg) and CRE-luciferase reporter construct (3 μg), consisting of the open reading frame of the luciferase gene, downstream of a multimerized cAMP-response-element (CRE) and promoter. After transfection, cells were grown overnight before an additional 20 ml of culture medium was supplemented. Cells were again incubated overnight for a final growth phase before luminescence screens were performed.
(§3) The aequorin luminescence assay was used to measure Ca^2+ signaling in CHO cell lines. Cells were detached using phosphate buffered saline (PBS) containing 0.2% EDTA and collected in 10 ml of DMEM/F-12 (without phenol red, with L-glutamine and 10 mM HEPES; Gibco). The viable cells were quantified using a NucleoCounter NC-100 (Chemometic). Cells were pelleted by 4 min centrifugation at 800 rpm at room temperature and resuspended in DMEM/BSA (DMEM/F-12 without phenol red, with L-glutamine and 10 mM HEPES, 0.1% bovine serum albumin) at a concentration of 5×10^6 cells/ml. Cells were then shielded from light and Coelenterazine H (Invitrogen) was added at a final concentration of 5 μM. Cells were gently shaken at room temperature for 4 h under dark conditions, allowing the aequorin holoenzyme to be reconstituted. After a 10-fold dilution in DMEM/BSA, cells were incubated another 30 min under the same conditions. Pharmacological ligands were dissolved in DMEM/BSA and 50 μl of ligand was added to wells of a 96-well plate. Wells containing 50 μl of DMEM/BSA were used as a negative control, while wells containing 1 μM of ATP served as positive control. Incubated cells were added to the wells of the 96-well plate and light emission was measured for 30 s using a Mithras LB940 (Berthold Technologies). After 30 s Triton X-100 (0.2% in DMEM/BSA) was added, lysing the cells and thus serving as an internal reference. Light emission was measured for an additional 8 s after Triton X-100 was introduced in the wells. Light emission from each well was calculated relative to the total response (ligand+Triton X-100) using the output file of Mikrowin2000 software (Mikrotek). Further analysis was done in Graphpad Prism 5.

Trica-SKR2 [2] = experiment: Aequorin-luminescence assay, CHO-WTA11 cells (Gα16) transfected with Trica-SKR2; format: cell-based, Tribolium castaneum; settings: aequorin bioluminescence
Method: as §1, §2, §3

Trica-SKR1 [3] = experiment: Aequorin-luminescence assay, CHO-PAM28 cells (no Gα16) transfected with Trica-SKR1; format: cell-based, Tribolium castaneum; settings: CHO-PAM28 cells without Gα16; aequorin bioluminescence (Ca2+); three independent measurements in duplicate; read-out: EC50 for receptor activation in CHO-PAM28 cells, Trica-SKR1
Method: (§4) General pharmacological studies were performed in Chinese Hamster Ovary (CHO) WTA11 cells, stably coexpressing apoaequorin, a zeocin resistance gene and the promiscuous Gα16, which couples most agonist-induced GPCRs to the phospholipase C and Ca^2+ pathway irrespective of their natural signaling cascade. CHO-PAM28 cells stably expressing apoaequorin and a puromycin resistance gene but not Gα16 and HEK293T cells (Invitrogen) were used to determine possible effects on Ca^2+ and/or cAMP second messenger systems, respectively. […]
(§5) Cells were cultured in vitro as a monolayer at 37°C with a constant supply of 5% CO2 and were subcultivated twice a week. […] HEK 293T cells were cotransfected with a receptor construct (6 μg) and CRE-luciferase reporter construct (3 μg), consisting of the open reading frame of the luciferase gene, downstream of a multimerized cAMP-response-element (CRE) and promoter. […] Cells were again incubated overnight for a final growth phase before luminescence screens were performed.
(§6) The aequorin luminescence assay was used to measure Ca^2+ signaling in CHO cell lines. […] The viable cells were quantified using a NucleoCounter NC-100 (Chemometic). […] Incubated cells were added to the wells of the 96-well plate and light emission was measured for 30 s using a Mithras LB940 (Berthold Technologies). […]

Trica-SKR2 [4] = experiment: Aequorin-luminescence assay, CHO-PAM28 cells (no Gα16) transfected with Trica-SKR2; format: cell-based, Tribolium castaneum; settings: CHO-PAM28 cells without Gα16; aequorin bioluminescence (Ca2+); three independent measurements in duplicate; read-out: EC50 for receptor activation in CHO-PAM28 cells, Trica-SKR2
Method: as §4, §5, §6

Trica-SKR1 [5] = experiment: CRE-luciferase reporter-gene assay (cAMP), HEK293T cells transfected with Trica-SKR1; format: cell-based, Tribolium castaneum; settings: HEK293T cells cotransfected with CRE-luciferase; 200 μM IBMX; 3–4 h at 37°C; six independent measurements in duplicate; read-out: EC50, luciferase bioluminescence (cAMP), Trica-SKR1
Method: as §4, §5
(§7) The luciferase reporter-gene assay was used to quantify positive or negative coupling of the receptor to cAMP in HEK293T cells. Cotransfected HEK293T cells were detached and the viable cells were quantified using the NucleoCounter NC-100 (Chemometic) as described for CHO cells. […] Data were analyzed as described for CHO cells.

Trica-SKR2 [6] = experiment: CRE-luciferase reporter-gene assay (cAMP), HEK293T cells transfected with Trica-SKR2; format: cell-based, Tribolium castaneum; settings: HEK293T cells cotransfected with CRE-luciferase; 200 μM IBMX; 3–4 h at 37°C; three independent measurements in duplicate; read-out: EC50, luciferase bioluminescence (cAMP), Trica-SKR2
Method: as §4, §5, §7

[7] = system: CHO-PAM28 cells transfected with empty pcDNA3.1/V5-His-TOPO TA expression vector; experiment: Aequorin-luminescence assay, CHO-PAM28 cells transfected with empty expression vector; format: cell-based, Chinese Hamster; settings: aequorin bioluminescence
Method: as §4, §5, §6

[8] = system: HEK293T cells transfected with empty pcDNA3.1/V5-His-TOPO TA expression vector; experiment: CRE-luciferase reporter-gene assay, HEK293T cells transfected with empty expression vector; format: cell-based; settings: CRE-luciferase bioluminescence
Method: as §4, §5, §7

[9] = peptide at 1 μM, relative to sTrica-SK(5–13) at 1 μM = 100%, at least three biological repeats, each in duplicate

- EC50 (Trica-SKR1 [1]; 1 fM to 1 μM, ± 95% confidence interval, three independent measurements in duplicate): 0.0995 ± 0.028 nM
- EC50 (Trica-SKR2 [2]; 1 fM to 1 μM, three independent measurements in duplicate): 0.524 ± 0.2 nM
- EC50 (Trica-SKR1 [3]): 0.0585 ± 0.024 nM
- EC50 (Trica-SKR2 [4]): 1.61 ± 0.45 nM
- EC50 (Trica-SKR1 [5]): 0.0049 ± 0.0042 nM
- EC50 (Trica-SKR2 [6]): 1.4 ± 0.3 nM
Substance: FDDY(SO3H)GHMRFa [sTrica-SK(5–13), sulfated C-terminal fragment of T. castaneum SK comprising amino acids 5–13, reference compound]
- concentration at which maximal response was attained, Trica-SKR1 (Trica-SKR1 [1]): 100 nM
- % Trica-SKR1 (relative activation) (Trica-SKR1 [1]; [9]): 100.0%
- concentration at which maximal response was attained, Trica-SKR2 (Trica-SKR2 [2]): 100 nM
- % Trica-SKR2 (relative activation) (Trica-SKR2 [2]; [9]): 100.0%
- signal in empty-vector transfected CHO-PAM28 cells [7]: no signal was observed
- signal in empty-vector transfected HEK293T cells [8]: no signal was observed
